Assay results taken from the NIST ThermoML archive (doi:10.1021/je500389t).

Experiment: xn = mol fraction of the nth substance listed
Settings: 101 kPa, Liquid; for viscosity: Capillary tube (Ostwald / Ubbelohde) method; for mass density: Pycnometric method

COCCOCCOC [2,5,8-trioxanonane] + O
Settings | mass density, 293.15 K [kg/m3] | mass density, 298.15 K [kg/m3] | mass density, 303.15 K [kg/m3] | mass density, 308.15 K [kg/m3] | mass density, 313.15 K [kg/m3] | viscosity, 293.15 K [mPa·s] | viscosity, 298.15 K [mPa·s] | viscosity, 303.15 K [mPa·s] | viscosity, 308.15 K [mPa·s] | viscosity, 313.15 K [mPa·s]
x1 = 0.0147 | 1000.9 | 998.8 | 997.5 | 995.3 | 994.3 | 1.39 | 1.22 | 1.06 | 0.939 | 0.865
x1 = 0.0325 | 1004.6 | 1002.7 | 1000.2 | 998.1 | 995.2 | 1.9 | 1.66 | 1.41 | 1.23 | 1.09
x1 = 0.0548 | 1008.4 | 1005.5 | 1002.4 | 999.6 | 995.9 | 2.56 | 2.2 | 1.82 | 1.576 | 1.41
x1 = 0.0822 | 1010.3 | 1006.8 | 1003.1 | 999.7 | 995.8 | 3.21 | 2.73 | 2.22 | 1.91 | 1.7
x1 = 0.1183 | 1009.2 | 1004.8 | 1000.3 | 996.5 | 992.1 | 3.65 | 3.1 | 2.51 | 2.13 | 1.88
x1 = 0.1676 | 1003.2 | 998.7 | 994.1 | 990.1 | 985.4 | 3.63 | 3.09 | 2.53 | 2.14 | 1.9
x1 = 0.2384 | 993.6 | 988.3 | 983.9 | 979.3 | 974.5 | 3.12 | 2.7 | 2.24 | 1.92 | 1.72
x1 = 0.2866 | 987.3 | 982 | 977.5 | 973.2 | 968 | 2.75 | 2.42 | 2.01 | 1.75 | 1.58
x1 = 0.3468 | 980.1 | 974.9 | 970.4 | 965.6 | 960.8 | 2.36 | 2.1 | 1.77 | 1.5 | 1.42
x1 = 0.4495 | 970.7 | 965.4 | 960.9 | 956.2 | 951.1 | 1.97 | 1.77 | 1.47 | 1.31 | 1.21
x1 = 0.5426 | 963.6 | 958.5 | 953.8 | 949.2 | 943.8 | 1.61 | 1.47 | 1.27 | 1.14 | 1.06
x1 = 0.699 | 955.5 | 950.2 | 945.4 | 941 | 935.7 | 1.32 | 1.2 | 1.08 | 1 | 0.941
x1 = 0.7996 | 951.2 | 945.9 | 941.2 | 936.4 | 931.4 | 1.21 | 1.11 | 0.997 | 0.902 | 0.851
x1 = 0.8928 | 948.3 | 942.9 | 938.1 | 933.3 | 928.2 | 1.14 | 1.05 | 0.955 | 0.862 | 0.817
x1 = 1 | 945.2 | 939.8 | 935 | 930.7 | 925.4 | 1.09 | 0.998 | 0.914 | 0.834 | 0.785
